Molecule `CCOC(=O)CCn1ccn([C@H]2CCc3c(F)cc(F)cc3C2)c1=S` gave a melting point of 105 to 107 °C.
The same measure for `O=CCCCCC(c1cc(F)ccc1F)S(=O)(=O)c1ccc(Cl)cc1` (centres undefined): 135 to 136 °C; for `Cc1ccc(-c2c(N=[N+]=[N-])ncnc2OCCO)cc1`: 83.5 to 85 °C.
The same measure for `COC(=O)CS(=O)C(C)c1ccc(-c2ccccc2)c(F)c1` (centres undefined): 161 to 163 °C; for `CCOC(=O)c1nc2scc(C(=O)O)c2c(=O)[nH]1`: 258 °C.
`C[C@@H]1C[C@H](C)CN(C(=O)[C@@H]2Cc3ccccc3N2c2cccnn2)C1` returned a melting point of 159 to 160 °C.
With `O=C(O)Cc1c(C(=O)c2cc(C(=O)O)no2)[nH]c2ccc(Cl)cc12`, the melting point lay in the range of 200 to 205 °C.
Turning to `Oc1ccc(CCCCn2ccnc2)cc1`, the melting point was in the range of 124 to 125 °C.
To `Cc1ccc2ccc(C(=O)NCc3ccc(Cl)cc3)c(O)c2n1` belongs 95 to 98 °C; to `Cc1cc(-n2cncn2)cc2c1NC(=O)CC2`, 258 to 259 °C; to `O=C(O)C1=Cc2cc(Cl)c(OCC(F)(F)F)cc2OC1C(F)(F)F` (centres undefined), 174 to 176 °C.
The same measure for `CCOc1nc2nc(C(OC(C)=O)C3(Br)C(=O)N4C(C(=O)OCc5ccc([N+](=O)[O-])cc5)=CSC43)cn2c2c1CCC2` (centres undefined): 119 °C.
The same measure for `CC(C)(C)OC(=O)NC(C(=O)NC1c2cc(C#N)ccc2OC(C)(C)C1O)c1ccccc1` (centres undefined): 112 to 130 °C; for `CC(C)Nc1cccnc1N1CCN(C(=O)c2ccc(C(=O)N[C@H](C)CO)cn2)CC1`: 129 to 130 °C; for `CN(C)c1ccc(S(=O)CCCCCC(=O)NO)cc1` (centres undefined): 95 to 97 °C.
Consider `Cc1sc2c(Br)c3ccccc3c(-c3ccc(OS(=O)(=O)c4ccc(C(=O)O)c(O)c4)c(C4CCCC4)c3)c2c1C`, for which the melting point was more than 225 °C.
In the case of `COc1ccc(NC(=O)c2ccc([N+](=O)[O-])cc2N)cc1`, the melting point lay within 193 to 197 °C.
To `Cc1cc(C2=NCCO2)cc(C)c1O` belongs 184 to 186 °C; to `CC(C)c1cccc(C(C)C)c1NC(=O)CC(=O)c1ccccc1`, 124 to 126 °C; to `Cc1cccc(-c2cc(C(F)(F)F)n3ncc(C#N)c3n2)c1`, 202 °C.
The same measure for `CN(C)CCCN(C(=O)Cc1ccccc1)c1ccccc1SCc1ccc(Cl)cc1`: 92 to 94 °C; for `Cc1cc(C2=NN(c3nccs3)[C@H](C)Cc3cc4c(cc32)OCO4)cc(C)c1[N+](=O)[O-]`: 167 °C.
`CC(C)NC(C)CCc1nc(Cn2cnc3c2c(=O)n(C)c(=O)n3C)no1` (centres undefined) gave a melting point of 55 to 61 °C.
The same measure for `Cn1cc(-c2cc(Cl)cc(Cl)c2)c(=O)c(-c2cccc(C(F)(F)F)c2)c1`: 156 to 160 °C; for `CCOC(=O)c1cn(C2CC2)c2c(F)c(C(C#N)C(=O)OCC)c(F)c(F)c2c1=O` (centres undefined): 98 to 100 °C; for `CCCCc1c(/C=C/C(=O)OC)cc(OC)c2ccccc12`: 63 to 64 °C.
The same measure for `CCOC(=O)C(=NO)C(=O)OCC`: 86.5 to 88 °C.
The same measure for `CC(C(=O)O)c1ccc2c(c1)C(=O)c1ccccc1CN2C` (centres undefined): 155 to 158 °C; for `Cc1c(C)c(N2CCN(c3ccnc(Cl)n3)CC2)c(C)c2c1OC(C)(C)C2`: 192 to 193 °C; for `COc1cc(OCC(=O)O)c(C)cc1SCc1ccc(-c2cccc(OC(F)(F)F)c2)cc1`: 137 °C.
Regarding `COc1cccc2sc3cc(=O)ccc-3nc12`, the melting point is 206 to 207 °C.
The same measure for `Cc1nccn1S(=O)(=O)c1c[nH]cn1`: 158 to 159 °C.
The same measure for `CCCCCC(O)CCN1C(=O)NC(=O)C1CCCCCCC(=O)O` (centres undefined): 63 to 65 °C.
The same measure for `CCOC(=O)c1ccc(NC(=O)C=C(c2ccc(Br)cc2)c2ccc(Br)cc2)cc1`: 207 to 208 °C.
`c1ccc2c(c1)CSc1nncn1-2` came in with a melting point of 188 to 190 °C.
The same measure for `CC1(C)OC(=O)C(Oc2ccc(Cl)nc2)=C1c1ccc(S(C)(=O)=O)cc1`: 196 to 197 °C; for `COP(=O)(Cc1cc(C(C)(C)C)c(O)c(C(C)(C)C)c1)OC`: 155 °C.
To `CC(=O)NC(=O)c1ccc(OCCn2ccnc2)cc1` belongs 164 to 165 °C; to `CCOC(=O)C1=C(C)Nc2nc(N3CCOCC3)nc(N3CCOCC3)c2C1c1ccc(Cl)cc1` (centres undefined), 128 °C; to `Cc1cc2ncnn2nc1OCCCC(C)(C)CCS(N)(=O)=O`, 154 to 155 °C.
The same measure for `O=C(Cc1ccc(Cl)cc1Cl)c1ccncc1`: 77 °C.
On to `N#Cc1ccc(NCc2cc3c(cc2O)CCO3)s1`, for which the melting point fell in the range of 158 to 160 °C.
The same measure for `O=C(O)c1ccc(S(=O)(=O)Oc2ccc(-c3ccc(-c4c(Cc5ccccc5)sc5ccccc45)cc3)cc2)cc1O`: 236 to 238 °C; for `COc1ccc(N)c(SSc2cc(OC)ccc2N)c1`: 78 to 80 °C; for `COc1cc(C(=O)NC2CCN(C)CC2)c(F)cc1Nc1ncc2c(n1)N(C1CCCC1)CC(F)(F)C(=O)N2C`: 194 to 196 °C.
To `CCOC(=O)C1=C(C)NC(C)=C(C(=O)OCC)C1c1ccccc1/C=C/C(=O)OC(C)(C)C` belongs 143 to 145 °C.
The same measure for `CN(C)Cc1cccc2nc3n(c12)CCCN3c1ccc(Cl)cc1Cl`: 158 to 159 °C.
For `COc1ccc(S(=O)(=O)N(C)C)cc1C(=O)NCc1ccc(OCCN(C)C)cc1`, the melting point was in the range of 99.5 to 100 °C.
To `CCOC(=O)C(=Cc1ccccc1[N+](=O)[O-])C(=O)C(OCC)OCC` belongs 66 to 67.5 °C; to `COc1c(NOCc2ccccc2)ccnc1C`, 130 °C; to `COC(=O)C(Oc1cc(OCc2ccc3ncoc3c2)ccc1C#N)c1ccccc1C` (racemic), 157 to 159 °C.
To `CN(Cc1cccc(Cl)c1)c1ccc(C(N)=O)nc1` belongs 178 to 183 °C; to `Cn1cc(-c2cccc(C(F)(F)F)c2)c(=O)c(-c2cccc(S(C)(=O)=O)c2)c1`, 180 to 183 °C.
The same measure for `C[C@]1(O)CCCC[C@H]1n1cnc(C(=O)N2CCNC[C@H]2Cc2ccccc2)c1-c1ccccc1`: 191 °C; for `N#CCCn1cccc1-c1ccc2cnc(Nc3cccc(N4CCCC4=O)c3)nn12`: 60 to 67 °C; for `O=C(O)C=Cc1ccc2ccccc2c1`: 207 to 208 °C.
`Cc1ccc(OCC(O)CNC(C)C)c([N+](=O)[O-])c1[N+](=O)[O-]` (centres undefined) gave a melting point of 122 to 124 °C.
To `O=[N+]([O-])c1ccc2nc(-c3ccc4c(c3)OCCO4)ncc2c1` belongs 263 to 265 °C; to `CCOP(=O)(Cc1nnc2c(=O)[nH]c3ccc(Cl)cc3n12)OCC`, 223 to 227 °C.
The molecule `C[C@@H](n1cncn1)[C@](O)(Cn1cncn1)c1ccccc1F` showed a melting point of 105 to 106 °C.
The same measure for `O=C1Nc2ncc(Br)cc2C1(Br)Br`: 157 to 158 °C.
To `CCOC(=O)C(NC(=O)CCNC(=O)CO)C(=O)OCC` belongs 94.5 to 96 °C; to `CCC1(c2cn(-c3c(Cl)cc(C(F)(F)F)cc3Cl)nc2C#N)CC1`, 118 to 119 °C.
The same measure for `O=c1cc(-c2ccoc2)c2ccc(COc3cc(F)cc(-c4ccccc4)c3)cc2o1`: 105 to 107 °C.
The molecule `COc1ccc(OC)c(CN2CCc3cc(O)c(OC)cc3C2)c1` showed a melting point of 104 to 105 °C.
To `O=C(NCCBr)C1=C(C(=O)Nc2ccc(Cl)cc2F)CCCC1` belongs 165 to 166 °C; to `O=C(COc1cc(F)ccc1C(=O)NCc1cccc([N+](=O)[O-])c1)OCc1ccccc1`, 95 to 98 °C.
To `CC1(C)CCC(C)(C)c2cc(Oc3ccc(C=O)cc3)ccc21` belongs 75 to 76 °C.
The same measure for `COc1ccc(-c2cc(OCc3ccccc3)c(=O)n(C)c2-c2ccncc2)cc1`: 127 to 130 °C; for `CCOc1cc(C(F)(F)F)sc1C(=O)O`: 144 °C; for `CC(C(N)=O)C(O)(Cn1cncn1)c1ccc(Cl)cc1` (centres undefined): 186 to 189 °C.
In turn, `COC(=O)c1ccc(CC(C)NCC(O)c2ccc(O)c(CO)c2)cc1O` (centres undefined) returned a melting point of 81 to 83 °C.
For `COC(=O)ONC(=N)Nc1ccc(C(=O)OC(C)(C)C)cc1`, the melting point fell in the range of 122 to 126 °C.
The same measure for `COc1ccc2nc(N3CCN(C[C@H]4COc5ccc6nc(C)ccc6c5O4)CC3)ccc2c1`: 95 to 97 °C; for `COC(=O)Nc1cc(Cl)nc(N)n1`: 225 to 226 °C; for `Cc1cc(-n2cccn2)c2cccc(OCc3c(Cl)ccc(S(=O)(=O)N4CCC[C@H]4C(=O)O)c3Cl)c2n1`: 148 °C.
The same measure for `COC(=O)c1ccccc1NC(=O)CCl`: 97 to 99 °C.
To `CCc1cccc2c3c([nH]c12)C(CC)(CC(=O)OC)OCC3` (centres undefined) belongs 128 to 130 °C; to `Cn1c(=O)c(-c2c(Cl)cccc2Cl)cc2cnc(Nc3ccc(CCCC(=O)O)cc3)nc21`, 169 to 171 °C; to `CC(C)(C)C(=O)Nc1nc(O)c2cc(CCc3ccc(C(=O)O)cc3)cnc2n1`, more than 300 °C.
Turning to `CC1(CCC#N)CCC2OCCOC2CC1=O` (centres undefined), the melting point fell in the range of 58 to 60 °C.
To `O=C(Cc1csc(-c2c(O)cccc2O)n1)NC1C(=O)N2C(C(=O)OC(c3ccccc3)c3ccccc3)=CCSC12` (centres undefined) belongs 164 to 166 °C.
The same measure for `Cc1c(S(=O)(=O)Nc2ccc(CO)cc2S(C)(=O)=O)sc2ccc(F)cc12`: 120 to 121 °C.
The same measure for `N#Cc1cc(F)c(F)c(Br)c1Cl`: 71 to 72.5 °C; for `CCCCCC1=NNC(=O)CC1`: 40 °C; for `CCOC(=O)c1cnc2ccccc2c1O`: 266 °C.
Molecule `O=C1Nc2ccccc2C12COc1cc3c(cc12)OCCCO3` (centres undefined) yielded a melting point of 235 to 236 °C.
To `COc1ccc(C2c3ccccc3C(c3ccccc3)C2C(=O)O)cc1` (centres undefined) belongs 164 to 166 °C; to `O=C(NOCC(O)CN1CCCCC1)Nc1cccc(Cl)c1` (centres undefined), 117 to 118 °C.
